Substitutions are numbered along the chain they refer to.
Key:
[1] = molecular target: T1, Ba/F3 cell lines stably expressing human FLT3-ITD (Homo sapiens, UniProt P36888, cells depend on it, form not given); assay: FLT3 mutant assay, cell viability, Ba/F3-FLT3-ITD; type: cell-based, mouse; settings: IC50 (3 days), CellTiter-Glo; read-out: Ba/F3-FLT3-ITD Relative IC50
T1 sequence (P36888 1-993): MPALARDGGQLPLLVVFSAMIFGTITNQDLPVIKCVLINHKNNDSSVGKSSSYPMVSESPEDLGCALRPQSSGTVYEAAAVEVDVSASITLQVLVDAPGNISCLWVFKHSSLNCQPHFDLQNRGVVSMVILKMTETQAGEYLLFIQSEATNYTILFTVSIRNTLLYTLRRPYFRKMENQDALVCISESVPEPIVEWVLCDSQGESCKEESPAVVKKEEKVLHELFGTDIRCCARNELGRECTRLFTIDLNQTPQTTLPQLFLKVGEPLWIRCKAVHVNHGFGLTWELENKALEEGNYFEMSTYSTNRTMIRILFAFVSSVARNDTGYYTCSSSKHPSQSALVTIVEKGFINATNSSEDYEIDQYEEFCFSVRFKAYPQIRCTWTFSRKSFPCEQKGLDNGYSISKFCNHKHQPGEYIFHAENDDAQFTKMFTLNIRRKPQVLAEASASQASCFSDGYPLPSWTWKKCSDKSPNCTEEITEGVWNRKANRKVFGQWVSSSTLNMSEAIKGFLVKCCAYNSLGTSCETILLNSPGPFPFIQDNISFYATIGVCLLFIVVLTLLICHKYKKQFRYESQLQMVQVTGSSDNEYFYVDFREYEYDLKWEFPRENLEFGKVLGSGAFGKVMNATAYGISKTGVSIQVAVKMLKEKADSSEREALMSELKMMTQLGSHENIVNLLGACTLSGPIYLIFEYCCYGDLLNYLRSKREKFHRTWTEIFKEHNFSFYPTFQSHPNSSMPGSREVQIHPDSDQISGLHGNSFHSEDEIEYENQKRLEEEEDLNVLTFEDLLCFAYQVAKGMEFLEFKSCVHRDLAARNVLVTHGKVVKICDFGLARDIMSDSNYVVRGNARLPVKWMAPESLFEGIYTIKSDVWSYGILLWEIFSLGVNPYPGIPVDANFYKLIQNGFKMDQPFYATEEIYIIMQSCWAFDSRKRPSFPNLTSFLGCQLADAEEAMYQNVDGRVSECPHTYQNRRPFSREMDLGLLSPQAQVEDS
Method: (§1) Activity of compounds on FLT3 activating mutations were assessed using Ba/F3 cell lines (mouse pro-B cell line) stably expressing human FLT3-ITD, FLT3-ITD-D835Y or FLT3-ITD-F691L. […] The supernatant collected were concentrated with PEG8000 and used to infect Ba/F3 cells at 1-5 MOI in serum-free media with polybrene. Infected Ba/F3 cells were selected in presence of puromycin, and surviving cells verified by sequencing and/or protein detection assay. Constitutive expression of the activating kinase transforms the Ba/F3 cells into IL-3-independent growth allowing them to be cultured in the absence of IL-3. […] For use in compound testing, cells in exponential growth phase were harvested, counted, and resuspended at the required cell density. Cell viability assays were performed in 96-well assay plates and 90 μL of cell suspension seeded per well. Serial dilutions of the test compounds and assay controls and were freshly prepared for the assay. Nine-point 3× serial dilutions were prepared in 100% DMSO (400× stock) and subsequently diluted in cell culture media to obtain 10× stocks. Ten microliters of the 10× stock serial dilutions were added to the appropriate wells (triplicate wells per condition) in the assay plate. […] Assay plates were incubated for 3 days in at 37° C. in a humidified incubator with 5% CO2.
(§2) Inhibition rate (IR) of the tested compounds was determined by the following formula: IR (%)=(1−(RLU compound−RLU blank)/(RLU control−RLU blank))*100%. The inhibitions of different dose of compound were calculated in Excel file, and the dose responses were analysed using GraphPad Prism to evaluate related parameters, such as Bottom, Top and IC50. For the IC50 analysis by GraphPad Prism, the equation below was used to fit curve: Y=Bottom+(Top−Bottom)/(1+10^((LogIC50−X)*HillSlope))

[2] = molecular target: T2, Ba/F3 cell lines stably expressing human FLT3-ITD-D835Y (Homo sapiens, UniProt P36888, D835Y, cells depend on it, form not given); assay: FLT3 mutant assay, cell viability, Ba/F3-FLT3-ITD-D835Y; type: cell-based, mouse; settings: IC50 (3 days), CellTiter-Glo; read-out: Ba/F3-FLT3-ITD-D835Y Relative IC50
T2 construct: Ba/F3-FLT3-ITD-D835Y Relative IC50
T2 sequence (P36888 1-993 D835Y): T1 sequence (P36888 1-993) with D835Y
Method: as §1, §2

Structure (SMILES): CCc1nc(Nc2cccc([C@@H](C)CNC(=O)CN(C)C(=O)/C=C/CN3CCC3)c2)c(C(N)=O)nc1CC [Compound 508, (R, E)-3-((3-(1-(2-(4-(azetidin-1-yl)-N-methylbut-2-enamido)acetamido)propan-2-yl)phenyl)amino)-5,6-diethylpyrazine-2-carboxamide]
- GI50 [1]: 1 to 10 nM
- GI50 [2]: 10 to 100 nM

Structure (SMILES): CCc1nc(C(N)=O)c(Nc2cccc([C@@H](C)CNC(=O)CN(C)C(=O)/C=C/CN3CCC3)c2)nc1N(C)CC [Compound 518, (R,E)-3-((3-(1-(2-(4-(azetidin-1-yl)-N-methylbut-2-enamido)acetamido)propan-2-yl)phenyl)amino)-6-ethyl-5-(ethyl(methyl)amino)pyrazine-2-carboxamide]
- GI50 [1]: 1 to 10 nM
- GI50 [2]: 10 to 100 nM

Structure (SMILES): CCc1nc(C(N)=O)c(Nc2ccnc(CCNC(=O)[C@H](C)N(C)C(=O)/C=C/CN(C)C)c2)nc1N(C)C(C)C [Compound 605, (S, E)-3-((2-(2-(2-(4-(dimethylamino)-N-methylbut-2-enamido)propanamido)ethyl)pyridin-4-yl)amino)-6-ethyl-5-(isopropyl (methyl)amino) pyrazine-2-carboxamide]
- GI50 [1]: 1 to 10 nM
- GI50 [2]: 10 to 100 nM

Structure (SMILES): CCc1nc(C(N)=O)c(Nc2ccnc(CCNC(=O)[C@H](C)N(C)C(=O)/C=C/CN(C)C)c2)nc1C1CC1 [Compound 310, (S,E)-5-cyclopropyl-3-((2-(2-(2-(4-(dimethylamino)-N-methylbut-2-enamido)propanamido)ethyl)pyridin-4-yl)amino)-6-ethylpyrazine-2-carboxamide]
- GI50 [1]: 1 to 10 nM
- GI50 [2]: 10 to 100 nM

Structure (SMILES): CCc1nc(C(N)=O)c(Nc2cccc(CCNC(=O)[C@H](C)N(C)C(=O)/C=C/CN(C)C)c2)nc1NC(C)C [Compound 205, (S,E)-3-((3-(2-(2-(4-(dimethylamino)-N-methylbut-2-enamido)propanamido)ethyl)phenyl)amino)-6-ethyl-5-(isopropylamino)pyrazine-2-carboxamide]
- GI50 [1]: < 1 nM
- GI50 [2]: 1 to 10 nM

Structure (SMILES): CCCc1nc(Nc2cccc([C@@H](C)CNC(=O)CN(C)C(=O)/C=C/CN3CCC3)c2)c(C(N)=O)nc1CC [Compound 507, (R,E)-3-((3-(1-(2-(4-(azetidin-1-yl)-N-methylbut-2-enamido)acetamido)propan-2-yl)phenyl)amino)-6-ethyl-5-propylpyrazine-2-carboxamide]
- GI50 [1]: 1 to 10 nM
- GI50 [2]: 10 to 100 nM

Structure (SMILES): CCc1nc(C(N)=O)c(Nc2cccc(CCNC(=O)[C@H](C)N(C)C(=O)/C=C/CN(C)C)c2)nc1N(C)C(C)C [Compound 204, (S,E)-3-((3-(2-(2-(4-(dimethylamino)-N-methylbut-2-enamido)propanamido)ethyl)phenyl)amino)-6-ethyl-5-(isopropyl(methyl)amino)pyrazine-2-carboxamide]
- GI50 [1]: 1 to 10 nM
- GI50 [2]: 1 to 10 nM

Structure (SMILES): CCOc1nc(Nc2cccc(CCNC(=O)CN(C)C(=O)/C=C/CN3CCC3)c2)c(C(N)=O)nc1CC [Compound 602, (E)-3-((3-(2-(2-(4-(azetidin-1-yl)-N-methylbut-2-enamido)acetamido)ethyl)phenyl)amino)-5-ethoxy-6-ethylpyrazine-2-carboxamide]
- GI50 [1]: 1 to 10 nM
- GI50 [2]: 10 to 100 nM

Structure (SMILES): CCc1nc(C(N)=O)c(Nc2cc(F)cc(CCNC(=O)CN(C)C(=O)/C=C/CN3CCC3)c2)nc1C1CC1 [Compound 516, (E)-3-((3-(2-(2-(4-(azetidin-1-yl)-N-methylbut-2-enamido)acetamido)ethyl)-5-fluorophenyl)amino)-5-cyclopropyl-6-ethylpyrazine-2-carboxamide]
- GI50 [1]: 1 to 10 nM
- GI50 [2]: 10 to 100 nM

Structure (SMILES): CCc1nc(C(N)=O)c(Nc2cccc(CCNC(=O)CN(C)C(=O)/C=C/CN(C)C)c2)nc1N(C)CC [Compound 252, (E)-3-((3-(2-(2-(4-(dimethylamino)-N-methylbut-2-enamido)acetamido)ethyl)phenyl)amino)-6-ethyl-5-(ethyl (methyl)amino) pyrazine-2-carboxamide]
- GI50 [1]: < 1 nM
- GI50 [2]: 1 to 10 nM

Structure (SMILES): CCc1nc(C(N)=O)c(Nc2cccc(CCNC(=O)[C@H](C)N(C)C(=O)/C=C/CNC)c2)nc1N(C)C(C)C [Compound 307, (S,E)-6-ethyl-5-(isopropyl(methyl)amino)-3-((3-(2-(2-(N-methyl-4-(methylamino)but-2-enamido)propanamido)ethyl)phenyl)amino)pyrazine-2-carboxamide]
- GI50 [1]: 1 to 10 nM
- GI50 [2]: 10 to 100 nM

Structure (SMILES): CCc1nc(C(N)=O)c(Nc2cccc(CCNC(=O)CN(C)C(=O)/C=C/CN3CCC3)c2)nc1N(C)CC [Compound 516A, (E)-3-((3-(2-(2-(4-(azetidin-1-yl)-N-methylbut-2-enamido)acetamido)ethyl)phenyl)amino)-6-ethyl-5-(ethyl(methyl)amino) pyrazine-2-carboxamide]
- GI50 [1]: 1 to 10 nM
- GI50 [2]: 10 to 100 nM

Structure (SMILES): CCc1nc(C(N)=O)c(Nc2cccc([C@@H](C)CNC(=O)CN(C)C(=O)/C=C/CN3CCC3)c2)nc1C1CC1 [Compound 506, (R,E)-3-((3-(1-(2-(4-(azetidin-1-yl)-N-methylbut-2-enamido)acetamido)propan-2-yl)phenyl)amino)-5-cyclopropyl-6-ethylpyrazine-2-carboxamide]
- GI50 [1]: 1 to 10 nM
- GI50 [2]: 10 to 100 nM

Structure (SMILES): Cc1nc(C(N)=O)c(Nc2cccc(CCNC(=O)CN(C)C(=O)/C=C/CN(C)C)c2)nc1N(C)C(C)C [Compound 250, (E)-3-((3-(2-(2-(4-(dimethylamino)-N-methylbut-2-enamido)acetamido)ethyl)phenyl)amino)-5-(isopropyl(methyl)amino)-6-methylpyrazine-2-carboxamide]
- GI50 [1]: 1 to 10 nM
- GI50 [2]: 10 to 100 nM

Structure (SMILES): CCc1nc(C(N)=O)c(Nc2ccc(N3CCC(N4CCN(C)CC4)CC3)c(OC)c2)nc1NC1CCOCC1 [Gilteritinib, gilteritinib, reference compound]
- GI50 [2]: 10 to 100 nM

Source: patent US20240262795A1, “PYRAZINE COMPOUNDS AS INHIBITORS OF FLT3” (Biomea Fusion, Inc., priority 2021, published 2024)
